Data: ChEMBL document CHEMBL1201862, “PubChem BioAssay data set” (2004)
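Growth conditions: 96-well plates. Treatment: test compound, 48 hours, 5 concentrations. Analysis: linear interpolation between bracketing concentrations; unreached endpoints set to highest concentration. GI50: concentration for 50% inhibition of growth.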 The source made the active and inactive calls. Cut-off read from the data, not from the text of the source: active = GI50 up to about 1.1 µM and inactive = higher.

How the values were obtained:
Experiment in all cases: inhibition of tumour cell growth, NCI panel, 48 h
HCT-15 = system: HCT-15
SK-OV-3 = system: SK-OV-3
A498 = system: A498
UACC-257 = system: UACC-257
HL-60 = system: HL-60
HOP-62 = system: HOP-62
786-0 = system: 786-0
OVCAR-8 = system: OVCAR-8
OVCAR-5 = system: OVCAR-5
DU-145 = system: DU-145
A549 = system: A549
M14 = system: M14
MDA-N = system: MDA-N
SK-MEL-5 = system: SK-MEL-5
ACHN = system: ACHN
EKVX = system: EKVX
NCI-H522 = system: NCI-H522
SK-MEL-28 = system: SK-MEL-28
SW-620 = system: SW-620
SF-539 = system: SF-539
COLO 205 = system: COLO 205
MDA-MB-231 = system: MDA-MB-231
UACC-62 = system: UACC-62
Malme-3M = system: Malme-3M
HCT-116 = system: HCT-116
HCC 2998 = system: HCC 2998
HT-29 = system: HT-29
MDA-MB-435 = system: MDA-MB-435
SF-295 = system: SF-295
OVCAR-3 = system: OVCAR-3
SF-268 = system: SF-268
CAKI-1 = system: CAKI-1
SN12C = system: SN12C
BT-549 = system: BT-549
OVCAR-4 = system: OVCAR-4
SNB-75 = system: SNB-75
PC-3 = system: PC-3
MCF7 = system: MCF7
TK-10 = system: TK-10
SNB-19 = system: SNB-19
RXF 393 = system: RXF 393
CCRF-CEM = system: CCRF-CEM
NCI/ADR-RES = system: NCI/ADR-RES
Hs-578T = system: Hs-578T
KM12 = system: KM12
UO-31 = system: UO-31
NCI-H23 = system: NCI-H23
IGROV-1 = system: IGROV-1
NCI-H226 = system: NCI-H226
HOP-92 = system: HOP-92
NCI-H460 = system: NCI-H460
T47D = system: T47D
U-251 = system: U-251
LOX IMVI = system: LOX IMVI
RPMI-8226 = system: RPMI-8226
MOLT-4 = system: MOLT-4
SK-MEL-2 = system: SK-MEL-2
K562 = system: K562
SR = system: SR

## COc1ccc(/C=C2\CCC(CNc3ccc(OC)cc3)C2=O)cc1 (stereo unspecified)
HCT-15
  GI50: 6.78 µM
SK-OV-3
  GI50: > 100 µM (inactive)
A498
  GI50: 30.1 µM (inactive)
UACC-257
  GI50: 17.5 µM (inactive)
HL-60
  GI50: 3.09 µM (inactive)
HOP-62
  GI50: 36.4 µM (inactive)
786-0
  GI50: 9.51 µM (inactive)
OVCAR-8
  GI50: 17.7 µM (inactive)
OVCAR-5
  GI50: 18.5 µM (inactive)
DU-145
  GI50: 39.1 µM (inactive)
A549
  GI50: 36.4 µM (inactive)
M14
  GI50: 16.1 µM (inactive)
MDA-N
  GI50: 14.1 µM (inactive)
SK-MEL-5
  GI50: 19 µM (inactive)
ACHN
  GI50: 18.7 µM (inactive)
EKVX
  GI50: 30.3 µM (inactive)
NCI-H522
  GI50: 5.58 µM (inactive)
SK-MEL-28
  GI50: 18.9 µM (inactive)
SW-620
  GI50: 3.5 µM (inactive)
SF-539
  GI50: 20.4 µM (inactive)
COLO 205
  GI50: 15.7 µM (inactive)
MDA-MB-231
  GI50: 17.8 µM (inactive)
UACC-62
  GI50: 17.1 µM (inactive)
Malme-3M
  GI50: 22.6 µM (inactive)
HCT-116
  GI50: 11 µM (inactive)
HCC 2998
  GI50: 21.2 µM (inactive)
HT-29
  GI50: 14.3 µM (inactive)
MDA-MB-435
  GI50: 20.8 µM (inactive)
SF-295
  GI50: 31 µM (inactive)
OVCAR-3
  GI50: 17.4 µM (inactive)
SF-268
  GI50: 14.6 µM (inactive)
CAKI-1
  GI50: 18.7 µM (inactive)
SN12C
  GI50: 16 µM (inactive)
BT-549
  GI50: 13.7 µM (inactive)
OVCAR-4
  GI50: 23.4 µM (inactive)
SNB-75
  GI50: 31.1 µM (inactive)
PC-3
  GI50: 16.8 µM (inactive)
MCF7
  GI50: 2.61 µM (inactive)
TK-10
  GI50: 15.6 µM (inactive)
SNB-19
  GI50: > 42.6 µM (inactive)
RXF 393
  GI50: 16.2 µM (inactive)
CCRF-CEM
  GI50: 3.37 µM (inactive)
NCI/ADR-RES
  GI50: 39.4 µM (inactive)
Hs-578T
  GI50: 35.4 µM (inactive)
KM12
  GI50: 10.5 µM (inactive)
UO-31
  GI50: 17.9 µM (inactive)
NCI-H23
  GI50: 14.6 µM (inactive)
IGROV-1
  GI50: 13.9 µM (inactive)
NCI-H226
  GI50: > 100 µM (inactive)
HOP-92
  GI50: 18.9 µM (inactive)
NCI-H460
  GI50: 47.8 µM (inactive)
T47D
  GI50: 18.8 µM (inactive)
U-251
  GI50: 18.7 µM (inactive)
LOX IMVI
  GI50: 12.9 µM (inactive)

## C/C=C/C=C/c1nc(C#N)c(N)o1
HCT-15
  GI50: > 100 µM
SK-OV-3
  GI50: > 100 µM (inactive)
UACC-257
  GI50: > 100 µM (inactive)
HOP-62
  GI50: > 100 µM (inactive)
786-0
  GI50: > 100 µM (inactive)
OVCAR-8
  GI50: > 100 µM (inactive)
RPMI-8226
  GI50: > 100 µM (inactive)
OVCAR-5
  GI50: > 100 µM (inactive)
DU-145
  GI50: > 100 µM (inactive)
A549
  GI50: 99.3 µM (inactive)
M14
  GI50: > 100 µM (inactive)
MDA-N
  GI50: > 100 µM (inactive)
ACHN
  GI50: > 100 µM (inactive)
EKVX
  GI50: > 100 µM (inactive)
NCI-H522
  GI50: 41.6 µM (inactive)
SK-MEL-28
  GI50: > 100 µM (inactive)
SW-620
  GI50: > 100 µM (inactive)
SF-539
  GI50: > 100 µM (inactive)
COLO 205
  GI50: > 100 µM (inactive)
MDA-MB-231
  GI50: > 100 µM (inactive)
UACC-62
  GI50: > 100 µM (inactive)
MOLT-4
  GI50: 63.8 µM (inactive)
Malme-3M
  GI50: > 100 µM (inactive)
HCT-116
  GI50: > 100 µM (inactive)
HCC 2998
  GI50: > 100 µM (inactive)
HT-29
  GI50: > 100 µM (inactive)
MDA-MB-435
  GI50: > 100 µM (inactive)
SF-295
  GI50: > 100 µM (inactive)
OVCAR-3
  GI50: > 100 µM (inactive)
SF-268
  GI50: > 100 µM (inactive)
CAKI-1
  GI50: > 100 µM (inactive)
SN12C
  GI50: > 100 µM (inactive)
BT-549
  GI50: > 100 µM (inactive)
OVCAR-4
  GI50: > 100 µM (inactive)
SNB-75
  GI50: > 100 µM (inactive)
PC-3
  GI50: 36.6 µM (inactive)
MCF7
  GI50: > 100 µM (inactive)
TK-10
  GI50: > 100 µM (inactive)
SK-MEL-2
  GI50: > 100 µM (inactive)
SNB-19
  GI50: > 100 µM (inactive)
RXF 393
  GI50: > 100 µM (inactive)
CCRF-CEM
  GI50: 7.08 µM (inactive)
NCI/ADR-RES
  GI50: > 100 µM (inactive)
Hs-578T
  GI50: > 100 µM (inactive)
UO-31
  GI50: 18.3 µM (inactive)
NCI-H23
  GI50: > 100 µM (inactive)
IGROV-1
  GI50: > 100 µM (inactive)
NCI-H226
  GI50: > 100 µM (inactive)
K562
  GI50: > 100 µM (inactive)
HOP-92
  GI50: > 100 µM (inactive)
SR
  GI50: > 100 µM (inactive)
T47D
  GI50: > 100 µM (inactive)
U-251
  GI50: > 100 µM (inactive)
LOX IMVI
  GI50: > 100 µM (inactive)

## COC(=O)C1=CSC2(S1)C(C(=O)OC)=CSc1c2ssc1=O (stereo unspecified)
HCT-15
  GI50: 1.54 µM
SK-OV-3
  GI50: 9.42 µM (inactive)
A498
  GI50: 6.28 µM (inactive)
UACC-257
  GI50: 1.87 µM (inactive)
HL-60
  GI50: 1.6 µM (inactive)
HOP-62
  GI50: 3.06 µM (inactive)
786-0
  GI50: 1.57 µM (inactive)
OVCAR-8
  GI50: 2.34 µM (inactive)
RPMI-8226
  GI50: 1.55 µM (inactive)
OVCAR-5
  GI50: 8.15 µM (inactive)
DU-145
  GI50: 1.73 µM (inactive)
A549
  GI50: 7.43 µM (inactive)
M14
  GI50: 2.5 µM (inactive)
MDA-N
  GI50: 2.13 µM (inactive)
SK-MEL-5
  GI50: 2.24 µM (inactive)
ACHN
  GI50: 1.87 µM (inactive)
EKVX
  GI50: 5.98 µM (inactive)
NCI-H522
  GI50: 1.49 µM (inactive)
SK-MEL-28
  GI50: 1.97 µM (inactive)
SW-620
  GI50: 1.33 µM (inactive)
SF-539
  GI50: 1.57 µM (inactive)
COLO 205
  GI50: 1.87 µM (inactive)
MDA-MB-231
  GI50: 1.85 µM (inactive)
UACC-62
  GI50: 1.96 µM (inactive)
MOLT-4
  GI50: 1.97 µM (inactive)
Malme-3M
  GI50: 2 µM (inactive)
HCT-116
  GI50: 1.61 µM (inactive)
HCC 2998
  GI50: 3.01 µM (inactive)
HT-29
  GI50: 1.81 µM (inactive)
MDA-MB-435
  GI50: 1.72 µM (inactive)
SF-295
  GI50: 16.3 µM (inactive)
OVCAR-3
  GI50: 1.81 µM (inactive)
SF-268
  GI50: 2.69 µM (inactive)
CAKI-1
  GI50: 2.11 µM (inactive)
SN12C
  GI50: 2.12 µM (inactive)
BT-549
  GI50: 2.7 µM (inactive)
OVCAR-4
  GI50: 1.15 µM (inactive)
SNB-75
  GI50: 3.22 µM (inactive)
PC-3
  GI50: 2.22 µM (inactive)
MCF7
  GI50: 1.75 µM (inactive)
TK-10
  GI50: 2.42 µM (inactive)
SK-MEL-2
  GI50: 1.96 µM (inactive)
SNB-19
  GI50: 6.05 µM (inactive)
RXF 393
  GI50: 1.92 µM (inactive)
CCRF-CEM
  GI50: 0.762 µM (active)
NCI/ADR-RES
  GI50: 2.87 µM (inactive)
Hs-578T
  GI50: 2.36 µM (inactive)
KM12
  GI50: 3.9 µM (inactive)
UO-31
  GI50: 1.84 µM (inactive)
NCI-H23
  GI50: 2 µM (inactive)
IGROV-1
  GI50: 1.66 µM (inactive)
NCI-H226
  GI50: 22.7 µM (inactive)
K562
  GI50: 1.95 µM (inactive)
HOP-92
  GI50: 2.07 µM (inactive)
NCI-H460
  GI50: 6.15 µM (inactive)
T47D
  GI50: 2.14 µM (inactive)
U-251
  GI50: 1.54 µM (inactive)
LOX IMVI
  GI50: 1.64 µM (inactive)
